Laboratory results: patent publication US20250115597A1, “TYK2 INHIBITORS AND COMPOSITIONS AND METHODS THEREOF” (LYNK PHARMACEUTICALS CO. LTD., priority 2021, published 2025)
Like-named read-outs stand apart in the source and are kept apart here.

How the values were obtained:
[1] = target: T1, Ba/F3-FL-TYK2-P760L cells (Homo sapiens, UniProt P29597, P760L, cells depend on it); assay: Anti-proliferative assay, Ba/F3-FL-TYK2-P760L cells (Cell-Titer Glo); format: cell-based; conditions: 72 h, read-out: BaF3-FL-T2P760L IC50
T1 construct: BaF3-FL-T2P760L (nM)
T1 sequence (P29597 whole entry P760L): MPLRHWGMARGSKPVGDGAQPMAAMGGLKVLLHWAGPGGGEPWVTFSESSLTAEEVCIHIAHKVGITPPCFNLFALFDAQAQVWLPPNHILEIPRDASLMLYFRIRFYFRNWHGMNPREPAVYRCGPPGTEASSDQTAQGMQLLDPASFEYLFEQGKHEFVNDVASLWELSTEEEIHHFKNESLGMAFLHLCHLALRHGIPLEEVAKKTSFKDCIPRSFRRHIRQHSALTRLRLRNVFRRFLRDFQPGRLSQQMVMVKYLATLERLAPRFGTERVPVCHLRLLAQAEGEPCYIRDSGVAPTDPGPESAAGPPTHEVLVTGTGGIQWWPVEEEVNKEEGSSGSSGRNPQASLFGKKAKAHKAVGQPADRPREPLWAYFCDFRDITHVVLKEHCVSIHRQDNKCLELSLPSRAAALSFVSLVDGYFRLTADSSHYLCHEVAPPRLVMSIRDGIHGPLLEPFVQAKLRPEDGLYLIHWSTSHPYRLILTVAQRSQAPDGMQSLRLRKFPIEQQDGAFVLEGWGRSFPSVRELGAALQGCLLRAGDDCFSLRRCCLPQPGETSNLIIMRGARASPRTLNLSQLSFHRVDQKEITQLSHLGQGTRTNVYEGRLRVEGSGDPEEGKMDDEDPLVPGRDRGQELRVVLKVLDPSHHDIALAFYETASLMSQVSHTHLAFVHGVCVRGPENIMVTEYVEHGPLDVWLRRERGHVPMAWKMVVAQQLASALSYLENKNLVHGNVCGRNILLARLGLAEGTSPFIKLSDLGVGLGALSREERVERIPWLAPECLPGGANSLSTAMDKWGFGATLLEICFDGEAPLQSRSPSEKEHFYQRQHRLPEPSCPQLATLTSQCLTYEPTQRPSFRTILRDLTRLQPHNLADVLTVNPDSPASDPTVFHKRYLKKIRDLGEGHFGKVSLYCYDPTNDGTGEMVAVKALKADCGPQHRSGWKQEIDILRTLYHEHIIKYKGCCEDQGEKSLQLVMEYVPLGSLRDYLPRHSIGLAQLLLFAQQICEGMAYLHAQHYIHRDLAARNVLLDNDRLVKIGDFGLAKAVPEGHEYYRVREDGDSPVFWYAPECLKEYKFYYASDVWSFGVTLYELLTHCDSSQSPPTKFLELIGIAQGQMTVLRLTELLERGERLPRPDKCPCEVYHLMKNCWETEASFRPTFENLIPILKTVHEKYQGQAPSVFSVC
How it was run: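 Compound exposure ran 72 h at 37 °C in 5% CO2 across nine 3-fold concentrations from a 20 μM top dose, added 24 h after seeding 2000 cells/well.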

pSTAT1 [2] = assay: Phosphorylation inhibition of STAT in human PBMC, IFN-alpha stimulated (flow cytometry); format: cell-based; conditions: 20 min, read-out: IC50 on pSTAT1 inhibition in hPBMC
Description: Phosphorylation Inhibition of STAT in Human PBMC and Human Whole Blood Testing:
The inhibitory potential of test articles in human PBMC and human whole blood assay was evaluated by the method of flow cytometry.
IFN-alpha will activate JAK1 and TYK2 kinase in T cells by binding to IFN receptors, and then lead to phosphorylation of STAT1 and STAT2. The phosphorylated STAT1 enter nuclear and promote transcription and expression of IFN-gamma. To evaluate the efficacy of TYK2i in T cells, freshly prepared human PBMC or freshly collected human whole blood will be stimulated with certain unit of human IFN-alpha (Universal Type I IFN(1MU), R&D, 11200-2) for 20 mins in incubator. After stimulation, fix cells with Phosflow™ Fix Buffer I (BD, 557870), and then collect fixed cells by centrifugation (500 g, 8 min). Wash cells once with pre-cooled PBS, and then permeabilize cells with cold Perm Buffer III buffer (BD, 558050) for 45 mins on ice. Collect cells by centrifugation (600 g, 8 min) and washed twice with cold PBS. Stain cells with anti-human CD3 (FITC Mouse Anti-Human CD3, BD, 555332) and anti-pSTAT1_Y701(Alexa Fluor 647 Mouse Anti-Stat1 (pY701), BD, 612597) antibodies. Detect pSTAT1 by flow cytometry (CytoFlex S) and analyze data with FlowJo and GraphPad Prism 8 software. IC50 values of test articles were determined using 4-parameter logistic equation.

[3] = Microsomal metabolic stability assay; format: in vitro ADME; conditions: pH 7.4, 0.5 mg/mL protein, 1 μM compound
How it was run: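 Parent loss was tracked by LC/MS/MS at 0, 5, 15, 30 and 45 min, with half-life derived from the ln(% remaining)–time slope. Incubation at 37 °C, pH 7.4 phosphate/EDTA buffer: 0.5 mg/mL microsomes, 1 μM compound, NADPH-regenerated (2 mM).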

pSTAT1 [4] = assay: Phosphorylation inhibition of STAT in human whole blood, IFN-alpha stimulated (flow cytometry); format: cell-based; conditions: 20 min, read-out: IC50 on pSTAT1 inhibition in h WB
How it was run: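 Readout is pSTAT1 (Y701) in CD3-stained cells by flow cytometry, with IC50 derived from a 4-parameter logistic equation. Fresh human PBMC or fresh whole blood received a 20-min Universal Type I IFN-alpha stimulation before fixation and cold permeabilization.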

[5] = Plasma protein binding by equilibrium dialysis; format: in vitro ADME; conditions: human plasma, equilibrium dialysis 5 hours at 37° C.; read-out: % Bound (human) (converted)
How it was run: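 Compound spiked into plasma at 0.2 and 2 μM was dialyzed against PBS for 5 h at 37° C with shaking, in duplicate. Plasma and buffer chambers were matrix-matched, protein-precipitated and analysed by LC-MS/MS to derive % unbound, % bound and % recovery.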

TYK2-JH2 domain = target: T2, TYK2-JH2 domain (Homo sapiens, UniProt P29597); assay: Binding activity test for JH2 domain of TYK2 (Tb-antibody/tracer FRET); conditions: for JAK1/TYK2 selectivity: ratio JAK1-JH2 IC50 / TYK2-JH2 IC50
T2 construct: IC50 on JH2 domain activity (nM)
T2 sequence (P29597 589-875 limits assumed): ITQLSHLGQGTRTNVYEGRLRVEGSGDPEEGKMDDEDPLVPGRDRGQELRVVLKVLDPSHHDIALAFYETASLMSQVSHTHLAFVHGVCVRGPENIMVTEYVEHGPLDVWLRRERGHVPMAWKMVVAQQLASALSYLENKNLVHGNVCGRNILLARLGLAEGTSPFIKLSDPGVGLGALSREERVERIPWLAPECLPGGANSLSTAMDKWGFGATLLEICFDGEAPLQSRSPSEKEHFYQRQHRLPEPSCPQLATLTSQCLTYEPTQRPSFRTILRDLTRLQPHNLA
How it was run: (§1)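 FRET read-out after 60 min at 25° C plus overnight at 4° C; tracer displacement detected via Tb-labelled antibody on the JH2 domain. Dose-response used 11 points at 3-fold dilution.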

[6] = Hepatocytes metabolic stability assay; format: in vitro ADME; conditions: cryopreserved hepatocytes, human hepatocytes, 1.0×10^6 cells/mL; for CLint scaled at 1 μM: read-out: Human hepatocyte Clint(liver); for half-life at 1 μM: read-out: Human hepatocyte stability T1/2
How it was run: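 Cryopreserved hepatocytes (1.0×10^6 cells/mL final) were incubated with test compound at 1 μM at 37 °C and sampled at 0, 15, 30, 60 and 120 min, with acetonitrile quench and LC-MS/MS. k came from log-linear % remaining versus time, giving T1/2 and CLint.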

JAK1-JH2 domain = target: T3, JAK1-JH2 domain (Homo sapiens, UniProt P23458); assay: Binding activity test for JH2 domain of JAK1 (Tb-antibody/tracer FRET)
T3 construct: IC50 on JH2 domain activity (nM)
T3 sequence (P23458 583-855 limits assumed): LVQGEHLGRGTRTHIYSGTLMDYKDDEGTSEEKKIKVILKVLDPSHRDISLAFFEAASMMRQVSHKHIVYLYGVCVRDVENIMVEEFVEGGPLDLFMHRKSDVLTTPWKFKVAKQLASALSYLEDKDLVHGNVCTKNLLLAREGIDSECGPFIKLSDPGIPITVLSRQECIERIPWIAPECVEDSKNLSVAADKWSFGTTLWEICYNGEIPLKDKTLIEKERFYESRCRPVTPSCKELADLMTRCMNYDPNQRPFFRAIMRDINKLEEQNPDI
How it was run: as §1

JAK1 = target: T4, JAK1 (Homo sapiens, UniProt P23458); assay: JAK1 kinase activity, microfluidic assay (Caliper EZ Reader II); format: biochemical; conditions: JAK1 5 nM, 1 mM ATP
T4 construct: purchased Carna Biosciences
T4 sequence (P23458 whole entry): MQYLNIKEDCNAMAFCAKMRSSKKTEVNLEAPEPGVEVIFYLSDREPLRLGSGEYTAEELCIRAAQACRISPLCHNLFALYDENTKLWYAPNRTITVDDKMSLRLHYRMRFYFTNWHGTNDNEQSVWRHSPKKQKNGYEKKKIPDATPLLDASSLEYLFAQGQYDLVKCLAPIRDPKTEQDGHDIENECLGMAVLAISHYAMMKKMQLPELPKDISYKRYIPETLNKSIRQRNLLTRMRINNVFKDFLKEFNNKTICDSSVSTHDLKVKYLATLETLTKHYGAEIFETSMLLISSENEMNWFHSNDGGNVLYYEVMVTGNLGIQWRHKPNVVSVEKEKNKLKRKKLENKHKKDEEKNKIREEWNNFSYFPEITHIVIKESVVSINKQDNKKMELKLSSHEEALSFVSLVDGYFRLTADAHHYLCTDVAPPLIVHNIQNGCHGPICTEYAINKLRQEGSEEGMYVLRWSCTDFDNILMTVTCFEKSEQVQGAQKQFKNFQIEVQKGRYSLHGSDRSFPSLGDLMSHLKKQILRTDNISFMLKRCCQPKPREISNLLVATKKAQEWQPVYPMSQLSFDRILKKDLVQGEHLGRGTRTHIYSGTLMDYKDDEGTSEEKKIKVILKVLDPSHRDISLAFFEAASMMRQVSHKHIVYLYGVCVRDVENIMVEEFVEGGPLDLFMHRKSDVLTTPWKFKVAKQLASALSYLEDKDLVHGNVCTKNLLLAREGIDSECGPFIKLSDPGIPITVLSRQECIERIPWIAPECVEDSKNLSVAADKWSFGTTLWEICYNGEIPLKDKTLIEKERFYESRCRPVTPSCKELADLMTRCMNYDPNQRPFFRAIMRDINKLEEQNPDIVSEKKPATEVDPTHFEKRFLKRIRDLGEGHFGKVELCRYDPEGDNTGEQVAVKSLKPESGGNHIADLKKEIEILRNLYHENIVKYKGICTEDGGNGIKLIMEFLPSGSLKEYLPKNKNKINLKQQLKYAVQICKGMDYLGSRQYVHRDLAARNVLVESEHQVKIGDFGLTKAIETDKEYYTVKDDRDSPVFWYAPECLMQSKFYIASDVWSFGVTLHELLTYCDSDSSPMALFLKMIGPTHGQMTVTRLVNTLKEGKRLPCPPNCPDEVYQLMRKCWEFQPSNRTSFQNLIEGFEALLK
How it was run: (§2)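 Human JAK1, JAK2 or TYK2 enzyme was used in 50 mM HEPES, 10 mM MgCl2, 2 mM DTT and 0.01% Brij35, tuned to 10% conversion of a FAM-labelled peptide. Threefold dilutions of compound (top 5 µM, 1% DMSO) were pre-incubated with enzyme for 10 min, and reactions were stopped with EDTA. Phosphorylation was read by microfluidic mobility shift, and IC50 came from percent-inhibition curves.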

TYK2 = target: T5, TYK2 (Homo sapiens, UniProt P29597); assay: TYK2 kinase activity, microfluidic assay (Caliper EZ Reader II); format: biochemical; conditions: TYK2 1 nM, 1 mM ATP
T5 construct: purchased Carna Biosciences
T5 sequence (P29597 whole entry): as the sequence (P29597 whole entry P760L) above, with L760P counted along it
How it was run: as §2

JAK2 = target: T6, JAK2 (Homo sapiens, UniProt O60674); assay: JAK2 kinase activity, microfluidic assay (Caliper EZ Reader II); format: biochemical; conditions: JAK2 0.125 nM, 1 mM ATP
T6 construct: purchased Carna Biosciences
T6 sequence (O60674 whole entry): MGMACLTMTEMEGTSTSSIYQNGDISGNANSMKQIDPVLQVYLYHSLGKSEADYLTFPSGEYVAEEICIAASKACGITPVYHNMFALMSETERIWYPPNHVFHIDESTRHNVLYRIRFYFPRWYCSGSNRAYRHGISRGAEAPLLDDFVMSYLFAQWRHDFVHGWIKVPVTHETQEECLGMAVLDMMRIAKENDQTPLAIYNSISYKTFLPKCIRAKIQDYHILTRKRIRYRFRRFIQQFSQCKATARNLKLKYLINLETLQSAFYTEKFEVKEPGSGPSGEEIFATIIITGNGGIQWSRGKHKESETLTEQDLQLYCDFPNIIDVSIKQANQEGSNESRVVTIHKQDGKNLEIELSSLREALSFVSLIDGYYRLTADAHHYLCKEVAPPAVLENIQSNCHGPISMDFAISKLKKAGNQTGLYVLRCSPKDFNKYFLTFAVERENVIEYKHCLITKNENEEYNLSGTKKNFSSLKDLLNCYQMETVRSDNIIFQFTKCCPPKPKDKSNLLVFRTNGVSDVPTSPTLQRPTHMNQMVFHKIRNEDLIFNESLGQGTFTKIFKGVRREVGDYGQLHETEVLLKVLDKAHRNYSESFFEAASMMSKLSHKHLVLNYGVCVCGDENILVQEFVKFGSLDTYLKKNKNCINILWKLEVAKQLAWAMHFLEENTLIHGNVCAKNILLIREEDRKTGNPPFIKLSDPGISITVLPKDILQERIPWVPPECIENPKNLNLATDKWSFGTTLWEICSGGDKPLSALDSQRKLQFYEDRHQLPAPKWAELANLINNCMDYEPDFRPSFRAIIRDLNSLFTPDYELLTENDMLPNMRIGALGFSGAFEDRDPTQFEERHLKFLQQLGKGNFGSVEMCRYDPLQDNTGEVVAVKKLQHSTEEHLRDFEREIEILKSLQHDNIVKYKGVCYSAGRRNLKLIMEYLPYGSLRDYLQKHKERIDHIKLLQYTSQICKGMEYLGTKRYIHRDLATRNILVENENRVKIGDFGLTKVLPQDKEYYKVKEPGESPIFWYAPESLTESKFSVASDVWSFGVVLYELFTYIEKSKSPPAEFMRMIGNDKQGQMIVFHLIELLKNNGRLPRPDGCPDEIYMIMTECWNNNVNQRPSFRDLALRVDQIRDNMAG
How it was run: as §2

[7] = human PBMC, IFN-alpha 20 mins, CD3 cells
[8] = dog liver microsomes, read-out: Dog LM Clint
[9] = dog liver microsomes, read-out: Dog LM T½
[10] = human liver microsomes, read-out: Human LM Clint
[11] = human liver microsomes, read-out: Human LM T½
[12] = rat liver microsomes, read-out: Rat LM Clint
[13] = rat liver microsomes, read-out: Rat LM T½
[14] = human whole blood, IFN-alpha 20 mins, CD3 cells

Row | SMILES | GI50 [1] [nM] | IC50 (pSTAT1 [2]; [7]) [nM] | microsomal CLint at 1 μM [3, 8] [µL/min/mg] | half-life at 1 μM [3, 9] [h] | microsomal CLint at 1 μM [3, 10] [µL/min/mg] | half-life at 1 μM [3, 11] [h] | microsomal CLint at 1 μM [3, 12] [µL/min/mg] | half-life at 1 μM [3, 13] [h] | IC50 (pSTAT1 [4]; [14]) [nM] | fraction unbound at 5 h [5] | IC50 (TYK2-JH2 domain) [nM] | IC50 (pSTAT1 [2]; Homo sapiens, PBMC) [nM] | IC50 (pSTAT1 [4]; Homo sapiens) [nM] | CLint scaled at 1 μM [6] [mL/min/kg] | half-life at 1 μM [6] [h] | IC50 (JAK1-JH2 domain) [nM] | JAK1/TYK2 selectivity (TYK2-JH2 domain) | IC50 (JAK1) [nM] | IC50 (TYK2) [nM] | IC50 (JAK2) [nM]
1 | [2H]C([2H])([2H])NC(=O)c1nnc2cc1Nc1cc(cc(-c3ncn(C)n3)c1OC)COCc1cc(F)cc(n1)N2 [Example 71, 19-Fluoro-10-methoxy-N-(methyl-d3)-11-(1-methyl-1H-1,2,4-triazol-3-yl)-15-oxa-2,4,5,8,21-pentaazatetracyclo[15.3.1.1^{3,7}.1^{9,13}]tricosa-1(21),3,5,7(23),9(22),10,12,17,19-nonaene-6-carboxamide] | 48.7 | 79.5 | 5.63 | 4.1 | 27.4 | 0.843 | 21.9 | 1.05 | 823 |  |  |  |  |  |  |  |  |  |  | 
2 | [2H]C([2H])([2H])NC(=O)c1cnc(NC(=O)C2CC2)cc1Nc1cn(CC2CC2)c2ncn(CC)c(=O)c12 [Example 213, 6-(Cyclopropanecarboxamido)-4-((7-(cyclopropylmethyl)-3-ethyl-4-oxo-4,7-dihydro-3H-pyrrolo[2,3-d]pyrimidin-5-yl)amino)-N-(methyl-d3)nicotinamide] | 74.5 | 107 |  |  |  |  |  |  | 376 | 0.025 | 0.25 |  |  |  |  |  |  |  |  | 
3 | [2H]C([2H])([2H])NC(=O)c1cnc(NC(=O)C2CC2)cc1Nc1csc2cnn(CC)c(=O)c12 [Example 231, 6-(Cyclopropanecarboxamido)-4-((5-ethyl-4-oxo-4,5-dihydrothieno[2,3-d]pyridazin-3-yl)amino)-N-(methyl-d3)nicotinamide] | 65.9 |  |  |  |  |  |  |  |  |  | 0.979 | 3510 | 14400 |  |  |  |  |  |  | 
4 | [2H]C([2H])([2H])NC(=O)c1nnc(NC(=O)C2CC2)cc1Nc1csc2ccn(CC)c(=O)c12 [Example 197, 6-(Cyclopropanecarboxamido)-N-(methyl-d3)-4-((5-ethyl-4-oxo-4,5-dihydrothieno[3,2-c]pyridin-3-yl)amino)pyridazine-3-carboxamide] | 54.3 | 428 | 20.8 | 1.11 | 77.7 | 0.298 | 290 | 0.0798 | 863 |  |  |  |  | < 7.35 | > 4 |  |  |  |  | 
5 | [2H]C([2H])([2H])NC(=O)c1cnc(Nc2ccc(F)cn2)cc1Nc1cn(C)c2c(F)cn(CC)c(=O)c12 [Example 125, 4-((5-Ethyl-7-fluoro-1-methyl-4-oxo-4,5-dihydro-1H-pyrrolo[3,2-c]pyridin-3-yl)amino)-6-((5-fluoropyridin-2-yl)amino)-N-(methyl-d3)nicotinamide] | 31.9 | 75.7 |  |  |  |  |  |  | 581 |  | 1.44 |  |  |  |  |  |  |  |  | 
6 | [2H]C([2H])([2H])NC(=O)c1cnc(NC(=O)C2CC2)cc1Nc1ccn2ncc(CC)c2c1OC [Example 166, 6-(Cyclopropanecarboxamido)-4-((3-ethyl-4-methoxypyrazolo[1,5-a]pyridin-5-yl)amino)-N-(methyl-d3)nicotinamide] | 51.6 | 20.7 |  |  |  |  |  |  | 471 |  | 0.154 |  |  | 11.2 | 2.61 | 13.6 | 88.3 |  |  | 
7 | [2H]C([2H])([2H])NC(=O)c1cnc(NC(=O)C2CC2)cc1Nc1ccn2ncc(C)c2c1OC [Example 169, 6-(Cyclopropanecarboxamido)-4-((4-methoxy-3-methylpyrazolo[1,5-a]pyridin-5-yl)amino)-N-(methyl-d3)nicotinamide] | 64.9 | 35.1 |  |  |  |  |  |  | 422 |  | 0.31 |  |  | 8.6 | 3.44 | 8.76 | 28.3 |  |  | 
8 | [2H]C([2H])([2H])NC(=O)c1cnc(NC(=O)C2CC2)cc1Nc1ccc2cnn(CC#N)c2c1OC [Example 202, 4-((1-(Cyanomethyl)-7-methoxy-1H-indazol-6-yl)amino)-6-(cyclopropanecarboxamido)-N-(methyl-d3)nicotinamide] | 45.7 | 33.3 |  |  |  |  |  |  | 147 | 0.113 |  |  |  |  |  |  |  | > 5000 | > 5000 | > 5000
9 | [2H]C([2H])([2H])NC(=O)c1cnc2cc1Nc1cc(cc(-c3ncn(C4CC4)n3)c1OC)COCc1nc(ccc1F)N2 [Example 83, 11-(1-Cyclopropyl-1H-1,2,4-triazol-3-yl)-18-fluoro-10-methoxy-N-(methyl-d3)-15-oxa-2,4,8,21-tetraazatetracyclo[15.3.1.1^{3,7}.1^{9,13}]tricosa-1(20),3,5,7(23),9(22),10,12,17(21),18-nonaene-6-carboxamide] | 38.7 | 113 | 26.7 | 0.866 | < 11.5 | > 2 | < 11.5 | > 2 | 1580 |  |  |  |  |  |  |  |  |  |  | 
